Reference: US20070032458A1, “Compound having activity for inhibiting dioxin toxicity, pharmaceutical composition comprising the compound and method for treating disease resulting from dioxin toxicity using the compound” (priority 2005, published 2007)
Read-outs that look alike come from different tables or passages of the source.

What was measured:
[1] = tested on: Cytochrome P450 enzyme activity (ethoxyresorufin-O-deethylase activity); experiment: Dioxin-induced EROD (cytochrome P450 enzyme) activity inhibition in Hep G2 cells; assay type: cell-based; conditions: Homo sapiens, read-out: Dioxin-induced EROD activity inhibition IC50
Description: (§1) Hep G2 cell that is a human hepatocarcinoma cell line was cultured in an incubator with a culture medium of Dulbecco's Modified Eagle Medium (DMEM) containing 10% of Fetal Bovine Serum (FBS) at 37° C. under an atmosphere of 5% of CO2.
1×104 of the cultured human hepatocarcinoma cells were placed into wells of a […]. After 24 hours, the cells were treated with a solution in which compounds represented by formulae 2 through 8 (obtained from Chembridge Corporation, San Diego, Calif.) were dissolved in dimethyl sulfoxide (DMSO) in a concentration of 0.1%. After one hour, the cells were treated with 3 nM of 2,3,7,8-tetrachlorodibenzo-p-dioxin (obtained from Cambridge Isotope Laboratory, Andover, Mass., U.S.A.). Cytochrome P450 enzyme activity was measured after 24 hours and the measured activity was evaluated by measuring ethoxyresorufin-O-deethylase activity (EROD, Ciolino et al, 1998).

[2] = tested on: cytochrome P450 1A1; experiment: Western blot of dioxin-induced cytochrome P450 1A1 expression in hepatocarcinoma cells; assay type: cell-based, human
Description: as §1
3×10^5 of the cultured human hepatocarcinoma cells were placed into tissue culture plates and cultured for 24 hours. After 24 hours, the cells were treated with a solution in which Compound 2 (obtained from Chembridge Corporation, San Diego, Calif.) was dissolved in dimethyl sulfoxide (DMSO) in a concentration of 0.1%. After one hour, the cells were treated with 3 nM of 2,3,7,8-tetrachlorodibenzo-p-dioxin (obtained from Cambridge Isotope Laboratory, Andover, Mass., U.S.A.). After 24 hours, the culture medium was removed by suction and the cells were washed with phosphate buffer solution. Then the cells were lysed and the protein was quantified.
In FIG. 1, flavone that has been widely reported to inhibit dioxin toxicity even though it increases dioxin toxicity at high concentrations was used as a positive control group. FIG. 1 illustrates Western blot analysis of cells treated with Compound 2 and flavone.

[3] = target: T1, dioxin receptor (Homo sapiens, UniProt P35869); experiment: Inhibition of 3[H]-dioxin binding to its receptor in hepatocarcinoma cell cytoplasm (hydroxylapatite)
T1 construct: endogenous in cells; host or cells: hepatocarcinoma cells (cytoplasm fraction)
T1 sequence (P35869 11-848): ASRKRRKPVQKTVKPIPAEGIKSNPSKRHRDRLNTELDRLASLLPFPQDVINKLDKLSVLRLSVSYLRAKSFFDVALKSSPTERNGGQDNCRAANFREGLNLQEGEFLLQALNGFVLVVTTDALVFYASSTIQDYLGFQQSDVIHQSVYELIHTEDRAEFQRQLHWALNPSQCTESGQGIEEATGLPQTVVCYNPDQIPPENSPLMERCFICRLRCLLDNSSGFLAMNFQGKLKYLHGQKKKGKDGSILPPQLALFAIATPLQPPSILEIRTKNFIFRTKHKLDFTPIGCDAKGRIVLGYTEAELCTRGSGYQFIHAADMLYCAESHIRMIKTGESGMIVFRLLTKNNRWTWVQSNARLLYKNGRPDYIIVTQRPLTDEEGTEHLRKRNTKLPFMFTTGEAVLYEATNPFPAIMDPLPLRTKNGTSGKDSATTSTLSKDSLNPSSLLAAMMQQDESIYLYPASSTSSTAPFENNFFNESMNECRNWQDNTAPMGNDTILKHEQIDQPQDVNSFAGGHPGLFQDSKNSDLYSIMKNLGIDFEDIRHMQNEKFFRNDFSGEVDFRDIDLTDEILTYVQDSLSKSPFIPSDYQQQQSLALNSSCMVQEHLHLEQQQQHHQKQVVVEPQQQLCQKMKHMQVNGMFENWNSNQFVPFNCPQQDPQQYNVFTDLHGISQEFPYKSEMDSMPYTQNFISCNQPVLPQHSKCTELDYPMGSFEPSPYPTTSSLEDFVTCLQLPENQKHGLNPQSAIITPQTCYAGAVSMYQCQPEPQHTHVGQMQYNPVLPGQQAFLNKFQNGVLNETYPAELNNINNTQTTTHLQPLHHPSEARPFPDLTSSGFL
Description: Compound 2 and 3[H]-dioxin were added to cytoplasm of hepatocarcinoma cells and analysis on binding of ligand-receptor was performed using hydroxylapatite. […] The results are illustrated in FIG. 2.
FIG. 2 illustrates the ability in percentage of Compound 2 to inhibit the binding of 3[H]-dioxin to its receptor.

`Cc1cc(N=Nc2ccccc2C)ccc1N` [Compound 7] gave an IC50 ([1]; HepG2, Hep G2 cells, 3 nM 2,3,7,8-tetrachlorodibenzo-p-dioxin, measured after 24 hours) of 215 ± 42 nM.
`Cc1ccccc1N=Nc1ccc(NC(=O)C(C)C)c(C)c1` [Compound 5] was tested, and the IC50 ([1]; HepG2, 24 h) was 110 ± 7 nM.
`Cc1ccccc1N=Nc1ccc(NC(=O)c2ccc(F)cc2)c(C)c1` [Compound 4] showed an IC50 ([1]; HepG2, 24 h) of 105 ± 11 nM.
Work on `CCCCNC(=O)Nc1ccc(N=Nc2ccccc2C)cc1C` [Compound 8] yielded an IC50 ([1]; HepG2, 24 h) of 450 ± 75 nM.
`Cc1ccccc1N=Nc1ccc(NC(=O)c2cccs2)c(C)c1` [Compound 6] showed an IC50 ([1]; HepG2, 24 h) of 153 ± 10 nM.
In the case of `Cc1ccccc1N=Nc1ccc(NC(=O)c2ccnn2C)c(C)c1` [Compound 2], the IC50 ([1]; HepG2, 24 h) is reported as 30 ± 2 nM, the “expression of cytochrome P450 1A1 that is increased by dioxin” value ([2]; human hepatocarcinoma cells, 3 nM dioxin, 24 hours, Western blot) is reported as “inhibited expression of cytochrome P450 1A1” and the “effect in decreasing the amount of expressed cytochrome P450 enzyme” value ([2]; various concentrations, FIG. 1) is reported as “excellent effect”. For the same compound, the “binding ability of 3[H]-dioxin to its receptor with increasing concentration” value ([3]; Compound 2 at 0.1, 1 and 10 μM, FIG. 2) was “decreased as the concentration of Compound 2 increased” and the “binding of 3[H]-dioxin to its receptor” value ([3]; cytoplasm of hepatocarcinoma cells, hydroxylapatite) was “inhibited the binding”.
With `CC(=O)N(C(C)=O)c1ccc(N=Nc2ccccc2C)cc1C` [Compound 3] the IC50 ([1]; HepG2, 24 h) was 75 ± 4 nM.
